Data published in patent publication US6784186B1 (priority 1998, dated 2004).
Several values for one entry are separate records, joined by “and”; a condition that tells them apart may be missing. Equal values may be shown once. Read-outs that look alike come from different tables or passages of the source.

Experiments:
μ opiate receptor = tested on: μ opiate receptor; parameters: species or system guinea-pig
[1] = PQ-induced writhing test (mouse analgesia model); format: in vivo, ICR derived male mice; conditions: for % Reduction in Writhes: given 30 minutes before PQ (2 mg/kg), writhes 5 to 10 minutes after PQ
[2] = Formalin-induced hind paw licking test (mouse analgesia model); format: in vivo, ICR derived male mice; conditions: for % Reduction in Hind Paw Licking time: given one hour before subplantar formalin, licking time recorded during the following 20 to 30 minute period
[3] = in vivo

Compound: COc1ccc2c3c1O[C@H]1[C@@H](O)C=CC4[C@@H](C2)N(CCC(=N)N)CC[C@@]341 (stereo partly drawn) [KRS-2-63, 5α,6α-7,8-didehydro-4,5-epoxy-3-methoxy-17-N-[(2-aminoiminomethyl)ethyl]morphinan]
- agonist character (full / partial) (μ opiate receptor): partial agonist activity

Compound: N=C(N)CCN1CC[C@]23c4c5ccc(O)c4O[C@H]2[C@@H](O)C=CC3[C@H]1C5 (stereo partly drawn) [KRS-41, (5α,6α)-7,8-didehydro-4,5-epoxy-17-N-[(2-aminoiminomethyl)ethyl]-morphinan-3,6-diol]
- opiate activity in stimulated ileum compared to standard (μ opiate receptor): excellent activity compared to morphine
- % Reduction in Writhes ([1]; 3 mg/kg): 18%
- % Reduction in Writhes ([1]; 15 mg/kg): 93%
- analgesic activity at multiple of the morphine concentration ([1]; PQ writhing test, relative to morphine): 5 times the morphine concentration
- % Reduction in Hind Paw Licking time ([2]; 10 mg/kg): 12%
- % Reduction in Hind Paw Licking time ([2]; 30 mg/kg): 75%
- analgesic activity at multiple of the morphine concentration ([2]; formalin test, relative to morphine): 3 times the morphine concentration
- Corneal reflex ([3]; 30 mg/kg): 4.9 ± 0.1
- Grip strength ([3]; 30 mg/kg): 5.1 ± 0.4
- Positional Passivity ([3]; 30 mg/kg): 4.7 ± 0.3
- Respiratory rate ([3]; 30 mg/kg): 5.1 ± 0.2
- Tail elevation ([3]; 30 mg/kg): 2.0 ± 0.4

Compound: N=C(N)N1CC[C@]23c4c5ccc(O)c4O[C@H]2[C@@H](O)C=CC3[C@H]1C5 (stereo partly drawn) [KRS-2-19, (5α,6α)-7,8-didehydro-4,5-epoxy-17-N-(2-carboxamidino)-morphinan-3,6, -diol]
- agonist character (full / partial) (μ opiate receptor): only partial morphine agonist activity

Compound: CN1CC[C@]23c4c5ccc(O)c4O[C@H]2[C@@H](O)C=C[C@H]3[C@H]1C5.Cl [Morphine HCl, reference compound]
- % Reduction in Writhes ([1]; 3 mg/kg, HCl): 87% and 73%
- % Reduction in Hind Paw Licking time ([2]; 10 mg/kg): 100%

Compound: CN1CC[C@]23c4c5ccc(O)c4O[C@H]2[C@@H](O)C=C[C@H]3[C@H]1C5 [Morphine, reference compound]
- Corneal reflex ([3]; 10 mg/kg): 2.9 ± 0.2
- Grip strength ([3]; 10 mg/kg): 3.7 ± 0.3
- Positional Passivity ([3]; 10 mg/kg): 8.7 ± 0.4
- Respiratory rate ([3]; 10 mg/kg): 4.1 ± 0.3
- Tail elevation ([3]; 10 mg/kg): 7.0 ± 0.7
